pIC50, pKi: −log10 of the molar value.
How the values were obtained:
[1] = molecular target: Serine palmitoyltransferase 3 (Homo sapiens, UniProt Q9NUV7); assay: Inhibition of SPTLC3 (unknown origin)
[2] = molecular target: T1, Membrane-bound ghrelin O-acyltransferase MBOAT4 (Mus musculus, UniProt P0C7A3); assay: Inhibition of N-terminal His-tagged mouse GOAT expressed in baculovirus infected insect cells
T1 sequence (P0C7A3 whole entry): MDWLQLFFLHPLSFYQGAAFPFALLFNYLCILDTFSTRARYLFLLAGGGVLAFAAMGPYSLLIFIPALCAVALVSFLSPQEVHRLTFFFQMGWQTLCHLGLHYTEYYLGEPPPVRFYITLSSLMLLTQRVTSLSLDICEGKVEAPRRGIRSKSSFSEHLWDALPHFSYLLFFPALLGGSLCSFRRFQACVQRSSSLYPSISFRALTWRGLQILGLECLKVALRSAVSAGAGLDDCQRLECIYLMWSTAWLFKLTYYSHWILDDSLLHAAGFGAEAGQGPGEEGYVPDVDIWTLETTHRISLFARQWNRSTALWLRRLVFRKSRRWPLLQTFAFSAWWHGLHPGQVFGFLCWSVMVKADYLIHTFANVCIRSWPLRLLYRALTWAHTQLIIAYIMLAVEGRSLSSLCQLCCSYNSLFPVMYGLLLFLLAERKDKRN

[3] = molecular target: Transcriptional enhancer factor TEF-1 (Homo sapiens, UniProt P28347); assay: Inhibition of N-terminal His-tagged human TEAD1 expressed in Escherichia coli BL21 (DE3) (209 to 424 residues) by affinity chromatography analysis
Transcriptional enhancer factor TEF-1, sequence (P28347 whole entry, the tested form may be a part): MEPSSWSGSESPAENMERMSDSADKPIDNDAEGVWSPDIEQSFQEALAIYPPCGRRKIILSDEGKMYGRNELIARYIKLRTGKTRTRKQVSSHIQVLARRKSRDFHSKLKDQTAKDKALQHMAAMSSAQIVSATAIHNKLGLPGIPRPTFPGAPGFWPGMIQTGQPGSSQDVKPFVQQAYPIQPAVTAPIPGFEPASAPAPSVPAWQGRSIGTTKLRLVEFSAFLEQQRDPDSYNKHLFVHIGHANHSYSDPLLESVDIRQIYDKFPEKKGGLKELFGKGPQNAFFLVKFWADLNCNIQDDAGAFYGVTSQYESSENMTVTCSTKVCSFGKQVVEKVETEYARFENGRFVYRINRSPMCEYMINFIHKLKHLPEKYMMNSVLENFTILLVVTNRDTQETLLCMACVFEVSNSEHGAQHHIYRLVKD

[4] = molecular target: T2, Membrane-bound ghrelin O-acyltransferase MBOAT4 (Homo sapiens, UniProt Q96T53); assay: Inhibition of GOAT (unknown origin)
T2 sequence (Q96T53 whole entry): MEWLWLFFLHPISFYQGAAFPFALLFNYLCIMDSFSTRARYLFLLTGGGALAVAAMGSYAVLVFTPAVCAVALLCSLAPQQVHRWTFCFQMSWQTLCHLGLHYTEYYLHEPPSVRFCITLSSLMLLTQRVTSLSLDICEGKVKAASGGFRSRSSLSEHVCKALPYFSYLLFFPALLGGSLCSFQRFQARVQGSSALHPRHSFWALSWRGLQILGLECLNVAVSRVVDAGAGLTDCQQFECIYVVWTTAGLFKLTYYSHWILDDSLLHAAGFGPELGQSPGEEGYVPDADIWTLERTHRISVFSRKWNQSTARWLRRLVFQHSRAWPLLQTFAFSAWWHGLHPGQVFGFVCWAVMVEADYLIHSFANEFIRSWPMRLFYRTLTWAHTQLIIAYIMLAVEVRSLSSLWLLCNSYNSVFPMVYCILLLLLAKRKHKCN

[5] = molecular target: T3, Carnitine O-palmitoyltransferase 1, liver isoform (Rattus norvegicus, UniProt P32198); assay: Inhibition of rat hepatocytes CPT1A; format: cell-based, Hepatocyte
T3 sequence (P32198 whole entry): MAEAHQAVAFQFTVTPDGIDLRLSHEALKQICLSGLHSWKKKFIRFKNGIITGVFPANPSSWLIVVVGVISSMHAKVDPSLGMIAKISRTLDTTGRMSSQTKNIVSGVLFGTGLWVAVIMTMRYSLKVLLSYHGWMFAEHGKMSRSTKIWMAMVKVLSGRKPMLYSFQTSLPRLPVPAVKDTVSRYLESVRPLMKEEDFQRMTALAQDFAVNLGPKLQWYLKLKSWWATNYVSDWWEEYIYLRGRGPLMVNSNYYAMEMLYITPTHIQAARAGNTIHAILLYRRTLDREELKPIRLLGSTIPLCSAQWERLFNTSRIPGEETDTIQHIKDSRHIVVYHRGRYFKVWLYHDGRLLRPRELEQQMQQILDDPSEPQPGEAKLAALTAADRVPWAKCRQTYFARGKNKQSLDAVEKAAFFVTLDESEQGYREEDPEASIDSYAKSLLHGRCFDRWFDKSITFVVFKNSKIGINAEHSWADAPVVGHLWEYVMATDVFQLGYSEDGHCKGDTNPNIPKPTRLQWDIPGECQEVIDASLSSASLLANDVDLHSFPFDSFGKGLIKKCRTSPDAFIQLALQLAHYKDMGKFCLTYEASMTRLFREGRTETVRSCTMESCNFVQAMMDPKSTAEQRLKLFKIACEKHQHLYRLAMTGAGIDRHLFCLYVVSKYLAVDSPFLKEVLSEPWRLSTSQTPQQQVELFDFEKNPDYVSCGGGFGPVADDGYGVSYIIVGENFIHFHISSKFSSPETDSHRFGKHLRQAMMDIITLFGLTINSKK

[6] = molecular target: T4, Carnitine O-palmitoyltransferase 1, muscle isoform (Homo sapiens, UniProt Q92523); assay: Inhibition of CPT1B (unknown origin) in KB cells; format: cell-based
T4 sequence (Q92523 whole entry): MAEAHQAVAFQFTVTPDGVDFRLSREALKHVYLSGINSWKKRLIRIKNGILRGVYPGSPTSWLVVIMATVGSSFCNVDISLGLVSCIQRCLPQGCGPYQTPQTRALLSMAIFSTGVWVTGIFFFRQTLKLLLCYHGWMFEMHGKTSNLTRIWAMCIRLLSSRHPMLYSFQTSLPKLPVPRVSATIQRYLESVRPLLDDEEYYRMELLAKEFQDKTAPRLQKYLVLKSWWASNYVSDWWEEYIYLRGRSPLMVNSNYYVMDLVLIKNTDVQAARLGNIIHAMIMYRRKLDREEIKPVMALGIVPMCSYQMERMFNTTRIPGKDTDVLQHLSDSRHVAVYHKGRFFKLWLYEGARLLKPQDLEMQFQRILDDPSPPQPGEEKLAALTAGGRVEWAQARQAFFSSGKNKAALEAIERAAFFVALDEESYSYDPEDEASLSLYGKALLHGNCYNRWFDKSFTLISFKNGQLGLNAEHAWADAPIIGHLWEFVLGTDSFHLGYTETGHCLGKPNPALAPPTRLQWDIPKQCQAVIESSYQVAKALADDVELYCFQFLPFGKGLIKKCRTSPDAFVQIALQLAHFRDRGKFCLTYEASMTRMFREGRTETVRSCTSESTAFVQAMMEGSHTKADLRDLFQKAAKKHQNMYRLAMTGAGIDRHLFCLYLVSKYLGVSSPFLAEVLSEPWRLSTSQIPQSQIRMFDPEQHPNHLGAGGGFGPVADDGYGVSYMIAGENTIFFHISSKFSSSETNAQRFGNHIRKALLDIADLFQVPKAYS

[7] = system: HCC4006; assay: cells; details: Homo sapiens, HCC4006, 24 h
[8] = molecular target: Tyrosine-protein kinase Lck (Homo sapiens, UniProt P06239); assay: Inhibition of N-terminal human recombinant Lck expressed in baculovirus infected in Sf9 cells
Tyrosine-protein kinase Lck, sequence (P06239 whole entry): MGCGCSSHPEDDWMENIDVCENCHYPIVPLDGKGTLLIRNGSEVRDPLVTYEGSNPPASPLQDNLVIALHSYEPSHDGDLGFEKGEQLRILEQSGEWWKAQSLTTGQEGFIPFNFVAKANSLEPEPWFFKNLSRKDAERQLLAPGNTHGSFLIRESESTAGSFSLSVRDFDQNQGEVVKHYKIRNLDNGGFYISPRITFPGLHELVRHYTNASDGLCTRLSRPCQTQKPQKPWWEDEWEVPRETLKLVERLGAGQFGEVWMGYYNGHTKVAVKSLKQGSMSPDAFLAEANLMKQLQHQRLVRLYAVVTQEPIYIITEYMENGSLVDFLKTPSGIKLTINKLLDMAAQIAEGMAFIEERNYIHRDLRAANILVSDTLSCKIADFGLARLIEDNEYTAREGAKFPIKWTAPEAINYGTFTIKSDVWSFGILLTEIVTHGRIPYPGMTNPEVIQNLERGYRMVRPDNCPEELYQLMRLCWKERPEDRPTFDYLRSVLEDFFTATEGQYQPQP

[9] = molecular target: Palmitoyltransferase ZDHHC7 (Homo sapiens, UniProt Q9NXF8); assay: Inhibition of ZDHHC7 (unknown origin)
Palmitoyltransferase ZDHHC7, sequence (Q9NXF8 whole entry, canonical isoform): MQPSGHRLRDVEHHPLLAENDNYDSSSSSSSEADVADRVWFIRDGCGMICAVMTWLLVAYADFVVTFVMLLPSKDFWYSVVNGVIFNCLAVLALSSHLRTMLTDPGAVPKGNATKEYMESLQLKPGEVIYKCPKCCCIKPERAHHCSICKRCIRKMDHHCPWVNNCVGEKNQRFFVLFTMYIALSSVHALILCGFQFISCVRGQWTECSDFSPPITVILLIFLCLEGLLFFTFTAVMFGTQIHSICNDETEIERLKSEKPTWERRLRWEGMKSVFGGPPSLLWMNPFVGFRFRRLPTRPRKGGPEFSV

[10] = molecular target: T4, Carnitine O-palmitoyltransferase 1, muscle isoform; assay: Inhibition of CPT1B (unknown origin)
[11] = molecular target: Palmitoyltransferase ZDHHC9 (Homo sapiens, UniProt Q9Y397); assay: Binding affinity to ZDHHC9 (unknown origin) assessed as inhibition constant
Palmitoyltransferase ZDHHC9, sequence (Q9Y397 whole entry): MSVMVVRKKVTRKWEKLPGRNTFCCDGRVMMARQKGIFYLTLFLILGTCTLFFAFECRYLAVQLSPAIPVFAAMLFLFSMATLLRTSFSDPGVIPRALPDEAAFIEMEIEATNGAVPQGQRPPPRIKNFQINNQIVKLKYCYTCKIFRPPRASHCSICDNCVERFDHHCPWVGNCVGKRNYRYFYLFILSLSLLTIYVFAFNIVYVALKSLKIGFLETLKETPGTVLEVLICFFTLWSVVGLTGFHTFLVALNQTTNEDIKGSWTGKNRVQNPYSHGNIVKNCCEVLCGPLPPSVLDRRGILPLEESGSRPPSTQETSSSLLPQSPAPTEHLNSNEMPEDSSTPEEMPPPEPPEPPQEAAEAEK

[12] = Inhibition of Wnt/beta-catenin signalling in Wnt3a stimulated HEK293 cells assessed as reduction in luciferase activity incubated for 24 hrs by TOPFlash luciferase reporter assay; format: cell-based; details: Homo sapiens, HEK293, 24 h
[13] = molecular target: Carnitine O-palmitoyltransferase 2, mitochondrial (Rattus norvegicus, UniProt P18886); assay: Inhibition of rat CPT2
Carnitine O-palmitoyltransferase 2, mitochondrial, sequence (P18886 whole entry): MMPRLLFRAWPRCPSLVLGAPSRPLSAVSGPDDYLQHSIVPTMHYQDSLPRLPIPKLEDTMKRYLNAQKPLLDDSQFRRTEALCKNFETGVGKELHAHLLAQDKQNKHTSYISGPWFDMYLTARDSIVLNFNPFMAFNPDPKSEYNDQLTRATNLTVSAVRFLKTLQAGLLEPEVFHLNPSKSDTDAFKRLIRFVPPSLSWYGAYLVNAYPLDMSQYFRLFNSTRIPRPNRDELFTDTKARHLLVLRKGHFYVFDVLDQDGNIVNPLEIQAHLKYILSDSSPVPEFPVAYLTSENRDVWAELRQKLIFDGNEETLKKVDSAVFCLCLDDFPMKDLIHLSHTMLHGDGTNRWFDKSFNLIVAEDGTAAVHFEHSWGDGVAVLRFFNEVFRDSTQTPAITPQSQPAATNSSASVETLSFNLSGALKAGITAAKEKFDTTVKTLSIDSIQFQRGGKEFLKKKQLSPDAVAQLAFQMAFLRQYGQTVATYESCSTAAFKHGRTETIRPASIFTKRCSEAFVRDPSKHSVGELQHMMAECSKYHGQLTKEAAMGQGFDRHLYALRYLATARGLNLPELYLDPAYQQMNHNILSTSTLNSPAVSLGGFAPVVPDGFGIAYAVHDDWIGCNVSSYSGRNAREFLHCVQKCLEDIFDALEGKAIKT

Serine palmitoyltransferase 3, sequence (Q9NUV7 whole entry): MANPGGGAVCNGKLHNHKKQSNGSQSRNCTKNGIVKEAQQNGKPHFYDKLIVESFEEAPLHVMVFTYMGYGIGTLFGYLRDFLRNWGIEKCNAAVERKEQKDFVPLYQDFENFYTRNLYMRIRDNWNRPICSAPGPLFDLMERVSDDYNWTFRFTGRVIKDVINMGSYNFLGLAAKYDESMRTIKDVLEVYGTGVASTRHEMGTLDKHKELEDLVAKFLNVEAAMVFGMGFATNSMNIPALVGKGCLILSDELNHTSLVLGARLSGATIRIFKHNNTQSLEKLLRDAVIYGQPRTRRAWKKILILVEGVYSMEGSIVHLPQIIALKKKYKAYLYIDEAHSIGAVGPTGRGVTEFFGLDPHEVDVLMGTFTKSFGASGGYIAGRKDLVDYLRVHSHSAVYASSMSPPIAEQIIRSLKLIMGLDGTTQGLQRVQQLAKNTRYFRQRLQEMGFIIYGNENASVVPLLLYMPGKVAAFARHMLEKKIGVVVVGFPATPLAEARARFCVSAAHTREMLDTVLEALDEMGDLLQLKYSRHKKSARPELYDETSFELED

Compound COc1ccc(C(=O)N2CC[C@H](NC(=O)c3ccccc3Cl)c3c2cnn3C(C)C)cc1OC has a pIC50 [1] of 8.40.
CCCCCCCCN(C(C)=O)C(C(=O)NCc1ccccc1)c1ccc2cc(O)ccc2c1 (stereo unspecified) showed a pIC50 [2] of 4.88.
C=CC(=O)N1C[C@@H](n2cc(C3CCOCC3)nn2)[C@H](OCc2ccc(C(F)(F)F)cc2)C1 gave a pIC50 [3] of 7.35.
With CCCCCCCC(C)(O)/C=C/[C@H](NC(=O)OCc1ccccc1)C(=O)OC (stereo partly specified) the pIC50 [4] was 5.82.
For COc1ccc(Cl)cc1S(=O)(=O)N1CC(C(=O)O)Oc2ccc(C(=O)Nc3cccc(F)c3)cc21 (stereo unspecified), the pIC50 [5] was 5.87 and the pIC50 [6] was 7.80.
Work on Cn1nc(C(F)(F)F)cc1C(=O)N[C@@H]1CCN(C(=O)c2cc(Cl)c3nccnc3c2)C[C@@H]1c1ccccc1 yielded a pIC50 [7] of 7.96.
With CCCCCCCCCCCCCCC(Br)C(=O)O (stereo unspecified) the pIC50 [8] was 5.00.
In the case of CCCCCCCCCCCCCCC(Br)C(=O)OC (stereo unspecified), the pIC50 [9] was 4.42.
Compound COc1ccc(CN2CCN(CCCSc3cc(C(C)(C)C)c(O)c(C(C)(C)C)c3)CC2)c(OC)c1OC has a pIC50 [10] of 4.77.
CC(C)Cc1ccc(C(C)CN2CCNC[C@@H]2CCCCN2CCN(CC(C)c3ccc(CC(C)C)cc3)[C@@H](Cc3ccc(O)cc3)C2)cc1 (stereo partly specified) showed a pKi [11] of 4.14.
For C[C@H](C(=O)Nc1ccc(-c2ccsc2)cc1)n1cnc2c1c(=O)n(C)c(=O)n2C, the pIC50 [12] was 9.30.
Compound O=C(Cn1cc(I)c(=O)c(I)c1)Nc1ccc(-c2ccccc2)cn1 has a pIC50 [12] of 7.70.
C1CCC(C(CC2CCCCN2)C2CCCCC2)CC1 (stereo unspecified) [PERHEXILINE] showed a pIC50 [13] of 4.11.
In the case of Cc1nc(N)c2c(CCc3ccc(C(=O)O)cc3)coc2n1, the pIC50 [4] was 6.77.
Work on O=C(O)C(=O)c1ccc(OCCOc2ccc3ccccc3c2)s1 yielded a pIC50 [6] of 4.80.

From ChEMBL document CHEMBL5523703, “Modulators for palmitoylation of proteins and small molecules” (Eur J Med Chem, 2024)
